{
  "source": "patent US4883862A",
  "about": "“Mercaptosuccinyl glycyl-glycyl-glycine a complex thereof with Tc-99m, and methods of making the same” (Albert Einstein College of Medicine - of Yeshiva University, priority 1988, dated 1989)",
  "origin": "cited, not measured here",
  "key": {"[1]": {"conditions": "3 hrs after intravenous administration of 500 uCi"}},
  "data": [
    {"smiles": "O=C(O)CNC(=O)c1ccccc1[131I]", "note": "[I-131 OIH, o-[^131 I]iodohippurate]", "values": [
      {"measurement": "radiation dose to a normal kidney", "setting": "[1]", "result": 47, "unit": "mrad"},
      {"measurement": "radiation dose to the bladder wall", "setting": "[1]", "result": 1.7, "unit": "rad"},
      {"measurement": "renal absorbed dose", "setting": "patients with impaired renal function", "result": "≥ 3", "unit": "rad"}
    ]}
  ]
}
